Test results as given in US20210228590A1, “TREATING INFLUENZA USING SUBSTITUTED POLYCYCLIC PYRIDONE DERIVATIVES AND PRODRUGS THEREOF” (priority 2018, published 2021).

Tests used:
[1] = test system: influenza A virus A/PR/8/34; assay: Mouse model for delayed treatment, lethal infection: survival and body weight; assay type: in vivo, BALB/c mice
[2] = rat, in vivo, po
[3] = test system: influenza A virus A/PR/8/34; assay: Mouse model for delayed treatment: virus titers in lungs; assay type: in vivo, BALB/c mice; conditions: for virus in lungs: days 8 and 10 post infection, treatment from 72 hours, limit of detection 1.50 log10 TCID50/ml
[4] = in vivo

COC(=O)OCOc1c2n(ccc1=O)N([C@@H]1c3ccccc3SCc3c1ccc(F)c3F)[C@@H]1COCCN1C2=O [II-6, baloxavir marboxil]
survival ([1]; BXM 15 mg/kg orally twice daily for 5 days from 24, 48, or 72 hours post infection, observed to day 28): all mice treated with 1.5 and 15 mg/kg of BXM survived | survival time versus vehicle-treated group ([1]; BXM from 24, 48, 72, and 96 hours post infection, P<0.01 or P<0.001): Significant differences in survival time | body weight change versus vehicle-treated group ([1]; BXM from 24, 48, 72, or 96 hours post infection): significantly less reduction of body weight compared with the vehicle-treated group | body weight loss versus OSP-treated group ([1]; BXM from 24, 48, 72 or 96 hour post infection, on indicated days): significantly less body weight loss than did the OSP-treated group | survival time versus OSP-treated group ([1]; BXM given from 72 and 96 hours post infection, OSP 5 mg/kg): significantly prolonged compared with that in OSP-treated group | concentration of Compound II-6 in plasma samples [2]: a determination limit or less | virus titers in lung versus vehicle-treated group ([3]; BXM 1.5 and 15 mg/kg for 5 days from 72 hours post infection, days 4 and 6 post infection): significantly reduced compared with those in the vehicle-treated group | virus titer in lung versus OSP-treated group ([3]; BXM 1.5 and 15 mg/kg from 72 hours post infection, days 4 and 6 post infection): significantly lower than that in the group treated with 5 mg/kg of OSP | virus in lungs [3]: No virus was detected

CCOC(=O)C1=C[C@@H](OC(CC)CC)[C@H](NC(C)=O)[C@@H](N)C1 [OSP, Oseltamivir phosphate, reference compound]
survival time versus vehicle-treated group ([1]; OSP 5 mg/kg twice daily for 5 days from 24 or 48 hours post infection): survived for a significant longer period than the vehicle-treated group | protection level (survival) ([1]; OSP 5 mg/kg twice daily for 5 days from 72 or 96 hours post infection): protection level was decreased | body weight loss versus control group ([1]; OSP from 24 and 48 hours post infection): Significant inhibitions in body weight loss | body weight loss versus vehicle-treated group ([1]; OSP from 72 and 96 hours post infection): body weight loss comparable to the vehicle-treated group | virus titers in lung versus vehicle-treated group ([3]; OSP 5 mg/kg from 72 hours post infection, day 4 post infection): Significant reduction in virus titers | virus in lungs [3]: No virus was detected

CC(=O)Oc1c2n(ccc1=O)N([C@@H]1c3ccccc3SCc3c1ccc(F)c3F)[C@@H]1COCCN1C2=O [II-4]
BA(%) [4]: 20.0%

O=C1c2c(O)c(=O)ccn2N([C@@H]2c3ccccc3SCc3c2ccc(F)c3F)[C@@H]2COCCN12 [III-2, baloxavir acid]
BA(%) [4]: 4.2%
